Assay results: patent US7919465B2, “Peptide mimotopes that inhibits interaction between a platelet receptor and a platelet receptor ligand” (priority 2006, dated 2011)
Read-outs that look alike come from different tables or passages of the source. Non-standard residues stand in square brackets, D forms with d. No end group written: not given here.

Legend:
GPIb-vWf interaction = biological target: T1, GPIb-vWf interaction (Homo sapiens, UniProt P07359); experiment: Flow cytometry inhibition of vWf binding to ristocetin-activated platelets in PRP; assay type: cell-based
T1 construct: Platelet rich plasma (PRP) was prepared from whole blood by centrifugation; endogenous in cells
Description: (§1) In order to prepare human platelets for testing, as approved by Canadian Blood Services' Ethics Board, samples of whole blood were drawn from healthy, consenting donors into 2.7-4.0 mL citrated tubes (BD, USA). Platelet rich plasma (PRP) was prepared from whole blood by centrifugation in a Beckman (CS-6R) bench-top centrifuge (r=203.57 mm, Beckman Coulter, USA) 164×g for 15 minutes. PRP from a number of unrelated donors were evaluated on an Adiva 120 Hematology Analyzer (Bayer, Canada) and standardized to a concentration of 300×10^9 platelets/L in HEPES buffered saline (HBS, 10 mM HEPES, 150 mM NaCl, pH 7.4).
Thereafter the samples were diluted and fixed with 1.0 mL 0.2% formolsaline (0.2% formaldehyde, 150 mM NaCl, pH 7.20) before analysis on a FACS Canto flow cytometer (BD, USA).
The effect of native HPG, free peptides, and peptide-conjugated HPG on activated platelets using modifications of the above assay systems was also examined. Platelets were treated with either 5 μL 4.2 mg/mL ristocetin (Chrono-Log, USA) or 100 U thrombin (T6884, Sigma-Aldrich, Canada) with 5 μL GPRP fibrin inhibitor (G5779, Sigma-Aldrich, Canada) dissolved in HBS. […] Controls included incubation with mouse IgG-FITC/IgG-PE (Beckman-Coulter, Canada) of the same isotype, and/or omitting the conjugate.

platelets = experiment: Aggregometry, % aggregation on activation; assay type: cell-based, human; set-up: concentration or dose not given beside the values; settings: ristocetin activation
Description: as §1
(§2) The effect of native HPG, free peptides, and peptide-conjugated HPG on activated platelets using modifications of the above assay systems was also examined. Platelets were treated with either 5 μL 4.2 mg/mL ristocetin (Chrono-Log, USA) or 100 U thrombin (T6884, Sigma-Aldrich, Canada) with 5 μL GPRP fibrin inhibitor (G5779, Sigma-Aldrich, Canada) dissolved in HBS. This was done to determine whether the peptides and the peptide-conjugates can mitigate vWf and thrombin mediated platelet effects. Controls included incubation with mouse IgG-FITC/IgG-PE (Beckman-Coulter, Canada) of the same isotype, and/or omitting the conjugate. As a result, native HPG, free peptides, and peptide-conjugated HPG neither did they increase vWf binding to resting platelets (Table 5) or they could trigger platelet activation.
The inhibition of platelet agglutination by vWf was observed both by light microscopy and lumiaggregometry (Table 5). No clumping was seen when resting platelets were incubated with free peptides, native HPG, or peptide-conjugated HPG.

[1] = tested on: CD62/P-selectin on platelet surfaces; experiment: Flow cytometry of surface CD62 expression on platelets; assay type: cell-based, human; settings: for Surface CD62 Expression, Activated Platelets: thrombin-activated platelets
Description: as §1
(§3) 40 μL aliquots of HBS were mixed with 5 μL PRP and 5 μL of the material to be tested: 500 kDa native HPG; free peptides; or peptide-conjugated HPG at 1.0×10^−3 M to 1.0×10^−9 M. After 40 minutes of incubation at ambient temperature, 5 μL 0.01 mg/mL FITC-conjugated polyclonal sheep anti-human vWf IgG (Abcam, USA) or 5 μL of 2 mg/mL PE-conjugated monoclonal mouse anti-human CD62 IgG (Beckman-Coulter, Canada) was added and incubation was continued in the dark for 30 min. Thereafter the samples were diluted and fixed with 1.0 mL 0.2% formolsaline (0.2% formaldehyde, 150 mM NaCl, pH 7.20) before analysis on a FACS Canto flow cytometer (BD, USA).
as §2, with “activation. […]” for “activation.”

[2] = tested on: vWf binding to resting platelets; experiment: Flow cytometry of vWf binding to resting platelets; assay type: cell-based, human
Description: as §1, §3, §2

GPIIbIIIa = experiment: Ristocetin-mediated GPIIbIIIa activation probed by PAC-1 antibody, flow cytometry; assay type: cell-based, human; settings: at IC50 concentration, 60 minutes, PAC-1, p<0.05
Description: To show inhibition of the GPIb-vWf interaction in PRP, activation had to target the plasma component, specifically vWf, by ristocetin, rather than the consequences of platelet activators such as thrombin or ADP. Ristocetin mediated GPIb signaling was detected through GPIIbIIIa activation and flow cytometry. 5 μL resting PRP were incubated with […] (SEQ ID NO:8) or L100 at their respective IC50 concentrations for 60 minutes and 5 μL 4.2 mg/mL ristocetin was used to induce platelet activation. Consequent GPIIbIIIa activation was probed via a monoclonal FITC-conjugated PAC-1 antibody to the active conformation of GPIIbIIIa (BD, Canada).

fibrinogen = biological target: T2, fibrinogen (Homo sapiens, UniProt P02671+P02675+P02679); experiment: Binding of D-amino acid-containing sequences to fibrinogen
T2 sequence (P02671 20-629 limits assumed): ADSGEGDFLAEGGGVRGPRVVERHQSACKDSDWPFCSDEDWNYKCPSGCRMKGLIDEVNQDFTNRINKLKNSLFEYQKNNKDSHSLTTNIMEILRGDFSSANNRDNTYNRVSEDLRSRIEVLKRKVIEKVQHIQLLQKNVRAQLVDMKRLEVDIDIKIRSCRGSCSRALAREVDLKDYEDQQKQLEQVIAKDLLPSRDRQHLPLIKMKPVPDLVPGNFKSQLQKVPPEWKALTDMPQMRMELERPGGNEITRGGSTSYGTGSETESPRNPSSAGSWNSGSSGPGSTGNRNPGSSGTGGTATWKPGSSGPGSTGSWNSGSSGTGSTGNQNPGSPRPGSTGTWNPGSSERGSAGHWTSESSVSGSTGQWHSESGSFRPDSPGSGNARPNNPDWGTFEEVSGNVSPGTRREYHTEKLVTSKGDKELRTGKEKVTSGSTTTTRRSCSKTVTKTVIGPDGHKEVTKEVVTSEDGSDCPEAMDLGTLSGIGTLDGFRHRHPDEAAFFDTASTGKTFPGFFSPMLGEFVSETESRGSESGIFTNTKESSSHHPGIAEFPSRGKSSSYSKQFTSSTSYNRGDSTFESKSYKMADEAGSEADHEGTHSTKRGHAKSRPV
T2 sequence (P02675 31-491): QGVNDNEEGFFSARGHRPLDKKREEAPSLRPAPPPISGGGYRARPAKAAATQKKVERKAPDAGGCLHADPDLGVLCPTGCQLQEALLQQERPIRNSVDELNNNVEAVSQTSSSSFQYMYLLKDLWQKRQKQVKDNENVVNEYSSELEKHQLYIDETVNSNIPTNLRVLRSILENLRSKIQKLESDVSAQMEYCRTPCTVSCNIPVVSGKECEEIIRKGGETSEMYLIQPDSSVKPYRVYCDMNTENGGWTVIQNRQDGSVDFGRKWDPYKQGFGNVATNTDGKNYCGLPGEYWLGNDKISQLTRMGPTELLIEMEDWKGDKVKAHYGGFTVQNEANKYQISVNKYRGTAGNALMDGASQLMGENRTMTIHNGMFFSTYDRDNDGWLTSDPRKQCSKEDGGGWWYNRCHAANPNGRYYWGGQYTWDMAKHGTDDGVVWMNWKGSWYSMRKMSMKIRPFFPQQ
T2 sequence (P02679 27-433 limits assumed): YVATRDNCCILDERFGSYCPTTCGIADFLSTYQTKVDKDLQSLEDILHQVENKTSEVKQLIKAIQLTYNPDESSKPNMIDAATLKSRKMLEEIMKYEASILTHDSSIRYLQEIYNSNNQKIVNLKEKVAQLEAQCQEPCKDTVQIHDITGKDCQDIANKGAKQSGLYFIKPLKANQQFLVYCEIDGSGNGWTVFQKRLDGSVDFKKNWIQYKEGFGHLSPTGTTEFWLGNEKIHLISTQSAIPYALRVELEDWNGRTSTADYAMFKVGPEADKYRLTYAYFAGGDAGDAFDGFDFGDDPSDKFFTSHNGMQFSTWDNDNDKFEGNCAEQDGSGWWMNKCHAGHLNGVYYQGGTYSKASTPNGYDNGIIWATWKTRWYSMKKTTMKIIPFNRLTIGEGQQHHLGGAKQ
From the text: These peptides can be used to pull/capture fibrinogen from a solution as well as to inhibit the interaction between fibrinogen and its cognate receptor(s).

Q: How did the IC50 (GPIb-vWf interaction) turn out when CGGGGGGSHAYIGLKDR [L-pep] was run?
A: 48 µM

Q: And the “Aggregometry % Aggregation on Activation” value (platelets)?
A: 5 ± 5%

Q: What about the “Surface CD62 Expression, Resting Platelets” value [1] of the same substance?
A: 18 ± 1

Q: What about the “Surface CD62 Expression, Activated Platelets” value [1] of the same substance?
A: 72 ± 8″

Q: What about the “vWf Binding, Resting Platelets” value [2] of the same substance?
A: 24 ± 4′

Q: And the “GPIIbIIIa activation upon ristocetin stimulation” value (GPIIbIIIa)?
A: significantly attenuated

Q: “FKWSWEWQGQEAYYD ([dF][dK][dW][dS][dW][dE][dW][dQ]G[dQ][dE][dA][dY][dY][dD])” was tested. Which “ability to bind to fibrinogen” value (fibrinogen) did it give?
A: bind to fibrinogen

Q: How did the “ability to bind to fibrinogen” value (fibrinogen) turn out when “FRIYYVYTTSQQDSC ([dF][dR][dI][dY][dY][dV][dY][dT][dT][dS][dQ][dQ][dD][dS][dC])” was run?
A: bind to fibrinogen

Q: With “KYQCYAPAHPSYVNY (also: D-amino acids, places not given here)” as the substance, how does the “ability to bind to fibrinogen” value (fibrinogen) read?
A: bind to fibrinogen

Q: How did the “inhibition of vWf binding to platelets (in words)” value (GPIb-vWf interaction) turn out when “L100: HPG 500 kDa conjugate with about 100 L-peptides per HPG molecule (CGGGGGGSHAYIGLKDR; also: conjugated to HPG 500 kDa, about 100 L-peptides per HPG molecule, site not given here)” was run?
A: effective inhibitors

Q: And the IC50 (GPIb-vWf interaction; expressed as peptide concentration, read-out: Peptide Concentration at Ic50)?
A: 210 µM

Q: And the IC50 (GPIb-vWf interaction; inhibition of platelet-vWf binding, molar concentration of peptide or conjugate, read-out: Ic50)?
A: 1.1 µM

Q: What about the “Surface CD62 Expression, Resting Platelets” value [1] of the same substance?
A: 20 ± 3

Q: What about the “Surface CD62 Expression, Activated Platelets” value [1] of the same substance?
A: 71 ± 5″

Q: What about the “vWf Binding, Resting Platelets” value [2] of the same substance?
A: 23 ± 2′

Q: And the “GPIIbIIIa activation upon ristocetin stimulation” value (GPIIbIIIa)?
A: significantly attenuated

Q: Which “ability to bind to fibrinogen” value (fibrinogen) does the source give for “SMTSMCYLIGAPKYK (also: D-amino acids, places not given here)” here?
A: bind to fibrinogen
